The record followed here is PMC7827406, “Structure–Activity Relationship (SAR) Study of Spautin-1 to Entail the Discovery of Novel NEK4 Inhibitors” (International Journal of Molecular Sciences, 2021).

Holding throughout (assay): biochemical
Holding throughout (set-up): Eurofins KinaseProfiler full panel at Km ATP, residual kinase activity (%) relative to DMSO

Experiment [1] deals with T1, IRAK4(h) (Homo sapiens, UniProt Q9NWZ3).
T1 sequence (Q9NWZ3 1-460): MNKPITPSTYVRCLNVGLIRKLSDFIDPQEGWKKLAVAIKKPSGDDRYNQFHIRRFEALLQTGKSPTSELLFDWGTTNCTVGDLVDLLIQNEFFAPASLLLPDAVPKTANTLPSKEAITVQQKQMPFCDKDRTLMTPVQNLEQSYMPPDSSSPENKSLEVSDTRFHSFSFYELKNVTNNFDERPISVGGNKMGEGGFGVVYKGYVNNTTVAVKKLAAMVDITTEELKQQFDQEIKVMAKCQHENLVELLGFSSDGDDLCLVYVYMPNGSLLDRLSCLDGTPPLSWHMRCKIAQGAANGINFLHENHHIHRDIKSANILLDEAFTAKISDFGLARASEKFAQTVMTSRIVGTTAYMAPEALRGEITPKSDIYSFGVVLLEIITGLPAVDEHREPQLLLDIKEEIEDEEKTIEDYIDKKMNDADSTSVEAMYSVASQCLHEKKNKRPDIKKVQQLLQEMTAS
In outline: (§1)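 Compounds screened at 10 µM in radiometric kinase activity assays at Km ATP, reported as remaining kinase activity (%). A KINOMEscan competition-binding screen at 10 µM measured DNA-tagged kinase retained on immobilized active-site ligand by qPCR.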

Experiment [2] addresses Met(h) (Homo sapiens, UniProt P08581). In outline: as §1
Experiment [3] has as its target T2, ROCK-II(r) (Rattus norvegicus, UniProt Q62868).
T2 construct: gene Rock2
In outline:
as §1

The target in experiment [4] is T3, DNA-PK(h) (Homo sapiens, UniProt P78527).
T3 construct: gene PRKDC
Put shortly:
as §1

In experiment [5] the target is T4, Yes(h) (Homo sapiens, UniProt P07947).
T4 construct: gene YES1
T4 sequence (P07947 whole entry): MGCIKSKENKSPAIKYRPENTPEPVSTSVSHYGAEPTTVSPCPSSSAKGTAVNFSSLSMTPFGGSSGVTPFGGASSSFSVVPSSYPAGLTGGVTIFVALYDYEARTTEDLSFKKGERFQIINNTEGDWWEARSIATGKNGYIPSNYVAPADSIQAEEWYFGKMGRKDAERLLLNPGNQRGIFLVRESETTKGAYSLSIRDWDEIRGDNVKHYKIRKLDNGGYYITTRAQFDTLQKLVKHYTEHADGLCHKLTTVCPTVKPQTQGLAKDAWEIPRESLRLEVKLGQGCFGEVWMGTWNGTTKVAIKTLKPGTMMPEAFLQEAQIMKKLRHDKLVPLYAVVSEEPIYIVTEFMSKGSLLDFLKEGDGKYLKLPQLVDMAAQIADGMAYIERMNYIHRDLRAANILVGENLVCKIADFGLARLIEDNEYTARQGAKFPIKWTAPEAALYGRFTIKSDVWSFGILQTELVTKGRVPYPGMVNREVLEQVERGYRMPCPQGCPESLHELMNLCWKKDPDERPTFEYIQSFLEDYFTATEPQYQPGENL
Put shortly:
as §1

Experiment [6] concerns the target T5, JNK1α1(h) (Homo sapiens, UniProt P45983).
T5 construct: gene MAPK8; isoform alpha1
In outline:
as §1

Experiment [7] deals with T6, Ros(h) (Homo sapiens, UniProt P08922).
T6 construct: gene ROS1
In outline: as §1

Experiment [8] concerns the target T7, FAK(h) (Homo sapiens, UniProt Q05397).
T7 construct: gene PTK2
Put shortly:
as §1

For experiment [9], the target named is T8, ICK(h) (Homo sapiens, UniProt Q9UPZ9).
T8 construct: gene CILK1
T8 sequence (Q9UPZ9 1-632): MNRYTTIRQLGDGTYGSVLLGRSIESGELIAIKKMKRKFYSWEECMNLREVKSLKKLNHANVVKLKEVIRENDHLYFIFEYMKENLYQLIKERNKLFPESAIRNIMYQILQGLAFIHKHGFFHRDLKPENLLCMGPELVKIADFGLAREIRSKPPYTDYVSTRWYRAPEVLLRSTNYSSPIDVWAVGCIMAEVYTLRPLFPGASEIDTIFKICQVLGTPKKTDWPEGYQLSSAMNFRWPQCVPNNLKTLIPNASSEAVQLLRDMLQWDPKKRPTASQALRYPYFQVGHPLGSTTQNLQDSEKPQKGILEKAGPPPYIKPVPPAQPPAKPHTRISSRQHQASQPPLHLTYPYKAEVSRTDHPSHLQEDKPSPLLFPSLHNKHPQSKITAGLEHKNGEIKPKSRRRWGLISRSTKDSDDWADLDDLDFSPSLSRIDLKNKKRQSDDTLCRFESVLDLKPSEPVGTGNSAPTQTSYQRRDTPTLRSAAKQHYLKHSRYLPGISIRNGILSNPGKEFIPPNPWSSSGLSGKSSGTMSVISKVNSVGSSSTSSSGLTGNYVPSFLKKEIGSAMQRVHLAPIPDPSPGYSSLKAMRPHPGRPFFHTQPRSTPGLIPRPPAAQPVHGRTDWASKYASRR
In outline:
as §1

Setting [10] is: read-out: Residual activity (%) 5at.
[11] abbreviates: read-out: Residual activity (%) 5ay.
[12] abbreviates: read-out: Residual activity (%) 5as.
The mark [13] stands for this setting: read-out: Residual activity (%) Spautin-1 5aa.

SMILES strings stand for the structures. Read-outs that look alike come from different tables or passages of the source.

T2 sequence (Q62868 whole entry): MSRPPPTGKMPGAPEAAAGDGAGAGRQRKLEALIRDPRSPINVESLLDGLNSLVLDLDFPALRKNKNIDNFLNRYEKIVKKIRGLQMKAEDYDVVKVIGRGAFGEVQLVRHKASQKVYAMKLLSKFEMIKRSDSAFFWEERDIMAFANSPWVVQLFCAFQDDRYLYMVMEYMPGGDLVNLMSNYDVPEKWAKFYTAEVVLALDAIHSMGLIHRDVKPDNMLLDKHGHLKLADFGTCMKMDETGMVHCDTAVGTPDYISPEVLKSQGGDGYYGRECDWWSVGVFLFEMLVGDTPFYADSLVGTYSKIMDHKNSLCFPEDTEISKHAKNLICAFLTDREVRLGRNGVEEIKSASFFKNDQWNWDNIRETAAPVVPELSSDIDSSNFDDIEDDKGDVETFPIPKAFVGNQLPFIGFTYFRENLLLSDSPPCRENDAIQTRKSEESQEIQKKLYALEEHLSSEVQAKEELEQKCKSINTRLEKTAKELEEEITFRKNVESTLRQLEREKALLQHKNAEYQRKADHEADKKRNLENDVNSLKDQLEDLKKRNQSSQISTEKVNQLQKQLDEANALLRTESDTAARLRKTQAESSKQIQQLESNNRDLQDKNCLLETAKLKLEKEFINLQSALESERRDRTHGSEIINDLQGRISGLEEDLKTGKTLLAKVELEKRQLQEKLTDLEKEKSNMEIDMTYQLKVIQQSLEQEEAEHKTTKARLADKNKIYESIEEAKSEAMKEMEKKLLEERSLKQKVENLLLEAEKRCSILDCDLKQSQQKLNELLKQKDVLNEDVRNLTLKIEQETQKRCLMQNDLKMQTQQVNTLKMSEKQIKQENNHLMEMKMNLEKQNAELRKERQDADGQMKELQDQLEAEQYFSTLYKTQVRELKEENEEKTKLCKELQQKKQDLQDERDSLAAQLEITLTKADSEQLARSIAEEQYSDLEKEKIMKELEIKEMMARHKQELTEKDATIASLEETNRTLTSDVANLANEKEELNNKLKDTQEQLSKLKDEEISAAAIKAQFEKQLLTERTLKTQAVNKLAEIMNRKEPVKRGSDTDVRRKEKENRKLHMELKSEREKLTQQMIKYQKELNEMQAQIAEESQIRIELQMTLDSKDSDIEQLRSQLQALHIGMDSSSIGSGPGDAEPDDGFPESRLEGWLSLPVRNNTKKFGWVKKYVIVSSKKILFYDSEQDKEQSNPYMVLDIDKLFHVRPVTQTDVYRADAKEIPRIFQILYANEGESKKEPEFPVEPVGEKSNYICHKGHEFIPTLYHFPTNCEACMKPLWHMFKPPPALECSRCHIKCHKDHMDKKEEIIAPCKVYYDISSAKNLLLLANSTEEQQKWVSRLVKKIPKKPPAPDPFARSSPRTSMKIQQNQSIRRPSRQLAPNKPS
T5 sequence (P45983 whole entry, canonical isoform): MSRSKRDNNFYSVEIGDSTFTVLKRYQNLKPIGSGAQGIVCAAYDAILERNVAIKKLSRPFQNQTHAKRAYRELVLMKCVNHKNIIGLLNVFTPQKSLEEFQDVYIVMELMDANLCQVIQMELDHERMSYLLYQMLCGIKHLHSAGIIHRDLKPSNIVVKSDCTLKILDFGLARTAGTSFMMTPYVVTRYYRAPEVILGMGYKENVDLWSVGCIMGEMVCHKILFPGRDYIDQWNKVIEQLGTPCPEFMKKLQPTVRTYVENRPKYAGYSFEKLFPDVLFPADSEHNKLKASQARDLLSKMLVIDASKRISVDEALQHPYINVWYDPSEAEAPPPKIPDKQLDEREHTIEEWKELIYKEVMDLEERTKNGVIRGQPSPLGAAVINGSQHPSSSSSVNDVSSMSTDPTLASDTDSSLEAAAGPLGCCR
Chain of Met(h) (P08581 whole entry): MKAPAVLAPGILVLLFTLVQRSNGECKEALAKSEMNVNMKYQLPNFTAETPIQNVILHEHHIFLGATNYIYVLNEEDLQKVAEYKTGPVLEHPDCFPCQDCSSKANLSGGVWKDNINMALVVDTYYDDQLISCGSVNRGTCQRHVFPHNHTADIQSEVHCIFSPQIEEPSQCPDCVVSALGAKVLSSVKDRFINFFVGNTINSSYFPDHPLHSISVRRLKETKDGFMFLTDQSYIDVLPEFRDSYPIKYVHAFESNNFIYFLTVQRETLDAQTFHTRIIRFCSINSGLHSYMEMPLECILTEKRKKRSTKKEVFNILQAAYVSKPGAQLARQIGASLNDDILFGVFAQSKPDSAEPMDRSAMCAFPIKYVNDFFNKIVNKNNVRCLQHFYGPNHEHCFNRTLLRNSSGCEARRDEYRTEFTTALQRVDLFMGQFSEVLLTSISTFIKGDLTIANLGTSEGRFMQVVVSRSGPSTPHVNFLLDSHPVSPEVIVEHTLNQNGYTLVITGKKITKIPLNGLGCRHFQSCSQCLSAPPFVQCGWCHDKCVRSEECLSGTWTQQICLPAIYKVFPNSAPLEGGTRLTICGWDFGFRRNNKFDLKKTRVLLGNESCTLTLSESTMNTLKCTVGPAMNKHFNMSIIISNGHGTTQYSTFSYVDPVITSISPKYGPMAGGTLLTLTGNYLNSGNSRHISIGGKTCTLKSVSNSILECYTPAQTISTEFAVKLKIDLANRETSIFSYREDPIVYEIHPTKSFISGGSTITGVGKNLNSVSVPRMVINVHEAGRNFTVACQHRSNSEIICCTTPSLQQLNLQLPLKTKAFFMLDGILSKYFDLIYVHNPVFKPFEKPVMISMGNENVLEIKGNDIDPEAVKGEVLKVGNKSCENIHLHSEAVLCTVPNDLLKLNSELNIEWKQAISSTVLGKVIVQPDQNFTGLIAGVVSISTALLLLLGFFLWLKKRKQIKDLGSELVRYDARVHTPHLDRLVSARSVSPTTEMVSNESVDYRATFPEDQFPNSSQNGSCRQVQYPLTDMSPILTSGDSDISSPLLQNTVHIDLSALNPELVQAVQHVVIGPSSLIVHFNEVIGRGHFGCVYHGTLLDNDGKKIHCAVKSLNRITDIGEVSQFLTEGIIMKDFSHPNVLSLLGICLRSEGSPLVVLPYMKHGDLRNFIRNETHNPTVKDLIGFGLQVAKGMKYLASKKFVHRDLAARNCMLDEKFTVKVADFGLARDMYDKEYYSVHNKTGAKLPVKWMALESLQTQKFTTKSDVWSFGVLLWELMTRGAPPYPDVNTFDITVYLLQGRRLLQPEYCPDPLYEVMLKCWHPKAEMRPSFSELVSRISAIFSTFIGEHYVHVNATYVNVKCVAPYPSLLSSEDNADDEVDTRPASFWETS
T7 sequence (Q05397 whole entry): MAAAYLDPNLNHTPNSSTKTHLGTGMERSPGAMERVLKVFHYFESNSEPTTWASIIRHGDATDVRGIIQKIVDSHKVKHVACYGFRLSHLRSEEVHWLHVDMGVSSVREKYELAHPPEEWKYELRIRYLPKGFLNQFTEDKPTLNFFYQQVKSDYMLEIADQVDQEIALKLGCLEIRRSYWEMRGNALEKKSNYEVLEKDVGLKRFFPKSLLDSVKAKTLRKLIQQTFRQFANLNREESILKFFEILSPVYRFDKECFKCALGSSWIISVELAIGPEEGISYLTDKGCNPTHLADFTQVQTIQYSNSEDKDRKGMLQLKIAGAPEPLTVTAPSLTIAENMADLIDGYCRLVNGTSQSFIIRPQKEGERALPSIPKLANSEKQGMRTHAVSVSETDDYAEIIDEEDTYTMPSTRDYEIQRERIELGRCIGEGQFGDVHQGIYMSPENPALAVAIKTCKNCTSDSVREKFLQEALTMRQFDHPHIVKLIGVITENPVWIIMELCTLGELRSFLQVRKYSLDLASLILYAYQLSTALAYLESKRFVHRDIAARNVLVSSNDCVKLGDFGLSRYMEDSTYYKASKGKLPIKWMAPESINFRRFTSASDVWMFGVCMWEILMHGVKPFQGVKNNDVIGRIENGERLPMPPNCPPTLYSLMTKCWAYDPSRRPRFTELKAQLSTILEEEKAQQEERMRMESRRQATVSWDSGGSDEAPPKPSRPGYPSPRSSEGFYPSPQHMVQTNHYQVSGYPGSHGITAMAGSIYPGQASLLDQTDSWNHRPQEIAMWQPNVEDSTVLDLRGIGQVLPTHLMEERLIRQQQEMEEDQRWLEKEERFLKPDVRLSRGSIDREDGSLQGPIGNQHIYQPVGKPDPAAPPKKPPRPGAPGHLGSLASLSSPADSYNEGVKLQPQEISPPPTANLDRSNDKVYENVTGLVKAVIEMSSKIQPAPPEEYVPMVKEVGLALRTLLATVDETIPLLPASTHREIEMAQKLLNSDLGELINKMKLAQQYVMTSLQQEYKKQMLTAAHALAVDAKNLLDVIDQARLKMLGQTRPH

On to `Fc1ccc2ncnc(NCCc3ccc(Cl)cc3)c2c1` [5at, N-[2-(4-Chlorophenyl)Ethyl]-6-Fluoro-4-Quinazolinamine], for which the remaining activity at 10 µM was determined as 103% in [1] (setting [10]); 112% in experiment [2] (setting [10]); 103% in [3] (setting [10]); 85% in experiment [4] (setting [10]); 84% in experiment [5] (setting [10]); 98% in experiment [6] (setting [10]). In addition, the remaining activity at 10 µM in experiment [7] (setting [10]) amounted to 105%; in experiment [8] (setting [10]), 83%; in [9] (setting [10]) it was 88%.
On to `COc1ccc2ncnc(Nc3cccc(F)c3)c2c1` [5ay, N-(3-Fluorophenyl)-6-Methoxy-4-Quinazolinamine], for which the remaining activity at 10 µM in experiment [1] (setting [11]) was found to be 60%; in experiment [2] (setting [11]) it was 72%; in [3] (setting [11]), 98%; in [4] (setting [11]), 72%; in [5] (setting [11]), 72%; in experiment [6] (setting [11]) it was 94%. The remaining activity at 10 µM was 101% in experiment [7] (setting [11]), 84% in experiment [8] (setting [11]) and 92% in experiment [9] (setting [11]).
As to `Fc1ccc(CCNc2ncnc3ccc(F)cc23)cc1` [5as, 6-Fluoro-N-[2-(4-Fluorophenyl)Ethyl]-4-Quinazolinamine], the remaining activity at 10 µM in experiment [1] (setting [12]) was found to be 92%; in [2] (setting [12]), 57%; in [3] (setting [12]), 105%; in [4] (setting [12]) it was 74%; in experiment [5] (setting [12]) it was 86%; in experiment [6] (setting [12]), 83%. In addition, the remaining activity at 10 µM came out at 101% in experiment [7] (setting [12]), 88% in experiment [8] (setting [12]) and 90% in experiment [9] (setting [12]).
For the compound `Fc1ccc(CNc2ncnc3ccc(F)cc23)cc1` [5aa, 6-Fluoro-N-(4-fluorobenzyl)-4-Quinazolinamine], the remaining activity at 10 µM stood at 96% in experiment [1] (setting [13]); 82% in experiment [2] (setting [13]); 90% in [3] (setting [13]); 89% in experiment [4] (setting [13]); 92% in [5] (setting [13]); 98% in experiment [6] (setting [13]). In addition, the remaining activity at 10 µM in experiment [7] (setting [13]) turned out to be 95%; in experiment [8] (setting [13]), 84%; in experiment [9] (setting [13]), 97%.
